In patent US20250171762A1, “THERAPEUTICAL PEPTIDOMIMETIC” (UNIVERSITA' DEGLI STUDI DI ROMA "LA SAPIENZA", priority 2021, published 2025):
Entries after “also recorded” stand apart in the source; their conditions may differ. Where two headings read alike, the source gives them in different places.

Experiments:
[1] = Plasma stability: incubation in human plasma, UPLC-MS quantification; format: in vitro ADME; settings: for remaining at 3 h, 0.2 mM: read-out: peptide available after incubation in plasma
Procedure: Panel B. Time course decay of β32_33, PMT, PMT-8a and PMT-8b incubated up to 72 h with human plasma from four healthy subjects. […] The Y axis indicates the signal intensity of the four peptides. Samples of plasma were obtained from healthy volunteers and immediately used for the analysis. Either β32_33 peptide or PMT for the experiment in panel A, and β32_33 peptide, PMT, PMT-8a or PMT-8b for the experiment in panel B, was incubated in plasma at a final concentration of 0.2 mM, at 37° C., up to 3 h (A) or 72 h (B). At the indicated time points, i.e., T0 and 3 h (A) or T0, 1.5, 3, 6 and 72 h (B), aliquots of 200 μL were treated with 3 volumes of acetonitrile containing 1% formic acid and extracted by a solid phase extraction system to remove proteins and phospholipids. Samples were dried under vacuum, resuspended in 100 μL of 0.1% formic acid containing 5% acetonitrile, and analyzed with a Water Acquity H-Class UPLC system equipped with a single-quadruple mass detector with electrospray ionization source. Samples were separated onto a reverse phase C18 column by performing a gradient with two mobile phases consisting of 0.1% formic acid in water and 0.1% formic acid in acetonitrile at a flow rate of 0.5 mL/min. Quantification was performed by Selected lon Recording (SIR): at m/z=917.88, corresponding to the [M+2 H]^2+ion obtained from either β32_33 or PMT; at m/z=961.42, corresponding to the [M+H]^+ion obtained from PMT-8a; and at m/z=869.48, corresponding to the [M+H]^+ion obtained from PMT-8b.
In order to evaluate whether compounds (βp and d-βp) are stable in blood or hydrolyzed by plasma peptidases, we set up a chromatographic assay to evaluate compound concentration after incubation in human plasma.
Blood was drawn by venipuncture in vacutainer containing EDTA as an anticoagulant.
Two different samples from healthy volunteers were used. Plasma was separated by centrifugation and immediately used for the experiments. Each compound was dissolved in 500 uL plasma at a final concentration of 0.2 mM, and split into two aliquots, one of which was immediately analyzed to assess the basal compound level; the other was incubated at 37° C. for 3 hours under gentle shaking. In order to perform chromatographic analysis the samples were treated with 3 volumes of acetonitrile containing 1% formic acid, and then extracted by using the Ostro™ pass-through sample preparation system to remove proteins and phospholipids. Samples were dried under vacuum and then resuspended in 100 uL of 0.1% formic acid containing 5% acetonitrile, then directly injected onto the chromatographic column.
Chromatographic analyses were performed on a Water Acquity H-Class UPLC system (Waters, Milford, MA, USA), including a quaternary solvent manager (QSM), a sample manager with a flow through needle system (FTN), a photodiode array detector (PDA) and a single-quadruple mass detector with electrospray ionization source (ACQUITY QDa). Analyses were performed on a reverse phase C18 column (75 mm×3.2 mm i.d., 2.5 μm particle size). The mobile phase was solvent A, 0.1% formic acid in water, and solvent B, 0.1% formic acid in acetonitrile. The flow rate was 0.5 mL/min, the column temperature was set at 25° C. and the elution was performed by linearly increasing the concentration of solvent B up to 70% in 7 minutes. Mass spectrometric detection was performed in the positive electrospray ionization mode, using nitrogen as the nebulizer gas. Analyses were performed in the Total lon Current (TIC) mode with a mass range of 100-1200 m/z. The capillary voltage was 0.8 kV, cone voltage 8 V, ion source temperature 120° C. and probe temperature 600° C. Quantification of each compound was performed by Selected lon Recording (SIR) at m/z 917.88, corresponding to the […]

[2] = test system: m·3243A>G mt-tRNA^Leu(UUR) mutant cybrids; assay: Cell viability, Trypan blue dye exclusion, galactose vs glucose medium; format: cell-based, human; settings: for viability of mutant cybrids vs non treated mutant cells: galactose medium
Procedure: For viability assessment, cells were plated in either glucose or galactose medium. The reason for this is that a viability phenotype can be appreciated in cells growing on galactose, which forces cells to rely on mitochondrial respiration, but not in cells growing on glucose. After 24 hours incubation, the number of viable cells in the galactose medium was normalized to the number of viable cells in glucose at the same time point, which represents the normal growth condition. Data are compared with the value of mutant cells incubated with vehicle only. Mean±SEM of at least three independent experiments is shown.
For viability assessment, cells were plated in either glucose or galactose medium. The reason for this is that a viability phenotype can be appreciated in cells growing on galactose, which forces cells to rely on mitochondrial respiration, but not in cells growing on glucose. After 24 hours incubation the number of viable cells in galactose medium was normalized to the number of viable cells in glucose (that represents the normal growth condition) at the same time point. Data are compared with the value of mutant cells incubated with vehicle only. Means±SEM of at least two independent experiments are shown.
Previously established osteosarcoma derived (143B.TK-) cybrid cell lines from patients, which bear either the m·3243A>G mutation in mt-tRNA^Leu(UUR) or the m·8344A>G mutation in mt-tRNA^Lys, and controls were used (generous gift from Dr Valeria Tiranti and Dr Valerio Carelli).
Cybrid cells were cultured in Dulbecco's modified Eagle's medium (DMEM), supplemented with 4.5 g/l d-glucose, 10% foetal bovine serum (FBS), 2 mM I-glutamine, 50 μg/ML uridine, 100 U/mL penicillin, and […] (referred to as glucose medium) in a humidified atmosphere of 95% air and 5% CO2 at 37° C. For cell viability experiments, cells were grown either in glucose medium or in glucose-free DMEM, supplemented with 5 mM galactose, […] sodium pyruvate, and 10% FBS (referred to as galactose medium). The reason for using the latter medium is that a pathological phenotype can be appreciated in cells growing on galactose, which forces cells to rely on mitochondrial respiration, but not in cells growing on glucose.
[…] Cells were switched in glucose or galactose and after 24 hours cell viability was measured by the Trypan blue dye exclusion assay. Cells were harvested with 0.25% trypsin and 0.2% EDTA, washed, suspended in PBS in the presence of Trypan blue solution (Sigma-Aldrich) at 1:1 ratio and counted using a hemocytometer. The number of viable cells in galactose medium was expressed as a percentage of the number of cells in glucose medium.
(§1) To evaluate the effect of the compounds on viability, cybrids were grown in glucose-free medium supplemented with galactose (galactose medium), a condition that both forces cells to rely on the mt respiratory chain for ATP synthesis and causes a significant growth reduction in the presence of mutations.
as §1, with “PMT and M-PMT” for “the compounds”

[3] = first experiment, plasma of two healthy volunteers, 37° C., 0.2 mM, 3 hours (FIG. 4A)
[4] = human, human plasma (EDTA) from healthy volunteers, first experiment, plasma of two healthy volunteers, 37° C., 0.2 mM, 3 hours (FIG. 4A)
[5] = second experiment, plasma of four healthy volunteers, 3 hours (FIG. 4B)

Row | Molecule | peptide available after incubation in plasma [1, 3] | degraded peptide after incubation in plasma ([1]; first experiment, plasma of two healthy volunteers, 37° C., 3 hours (FIG. 4A)) | remaining at 3 h, 0.2 mM [1, 4] | metabolised at 3 h, 0.2 mM ([1]; human, human plasma (EDTA) from healthy volunteers, first experiment, plasma of two healthy volunteers, 37° C., 3 hours (FIG. 4A), read-out: degraded peptide after incubation in plasma) | metabolised at 6 h, 0.2 mM ([1]; human, human plasma from healthy volunteers, second experiment, 6 h, read-out: peptide degraded after incubation in plasma) | remaining at 1.5 h, 0.2 mM ([1]; human, human plasma from healthy volunteers, second experiment, plasma of four healthy volunteers, 1.5 h (FIG. 4B), read-out: starting amount present after incubation in plasma) | remaining at 3 h, 0.2 mM ([1]; human, human plasma from healthy volunteers, second experiment, plasma of four healthy volunteers, 3 hours (FIG. 4B)) | peptide available after incubation in plasma [1, 5] | detectable degradation in plasma ([1]; first experiment, plasma of two healthy volunteers, 3 hours) | plasma stability compared with another peptide ([1]; human plasma, FIG. 4) | remaining at 6 h, 0.2 mM ([1]; human, human plasma from healthy volunteers, second experiment, 6 h, read-out: peptide present after incubation in plasma) | detectable degradation in plasma ([1]; second experiment, plasma of four healthy volunteers, up to 72 h) | viability of mutant cybrids vs non treated mutant cells ([2]; 0.5 μM, 24 hours (FIG. 6)) | viability of mutant cybrids vs non treated mutant cells ([2]; 2 μM, 24 hours (FIG. 6)) | viability of mutant cybrids vs non treated mutant cells ([2]; 5 μM, 24 hours) | lower concentration improving viability with respect to PMT ([2]; m·3243A>G mutant cybrids, FIG. 6)
1 | CC[C@H](C)[C@H](NC(=O)[C@H](CC(C)C)NC(=O)[C@H](C)NC(=O)[C@@H](NC(=O)[C@H](CCCNC(=N)N)NC(=O)[C@@H]1CCCN1C(=O)[C@H](CO)NC(=O)[C@H](CC(C)C)NC(=O)[C@H](Cc1ccccc1)NC(=O)[C@H](CO)NC(=O)[C@H](CCCCN)NC(=O)[C@@H](N)CCCCN)[C@@H](C)O)C(=O)N[C@@H](CC(N)=O)C(=O)N[C@@H](Cc1ccccc1)C(=O)N[C@@H](CC(C)C)C(=O)N[C@H](C(=O)O)C(C)C [β32_33, KKSFLSPRTALINFLV, reference compound] | 70% | at least 30% | 70% | 30% | 90% | > 85% | 17% | 17% | – | – | – | – | – | – | – | –
2 | CC[C@@H](C)[C@@H](NC(=O)[C@@H](CC(C)C)NC(=O)[C@@H](C)NC(=O)[C@H](NC(=O)[C@@H](CCCNC(=N)N)NC(=O)[C@H]1CCCN1C(=O)[C@@H](CO)NC(=O)[C@@H](CC(C)C)NC(=O)[C@@H](Cc1ccccc1)NC(=O)[C@@H](CO)NC(=O)[C@@H](CCCCN)NC(=O)[C@H](N)CCCCN)[C@H](C)O)C(=O)N[C@H](CC(N)=O)C(=O)N[C@H](Cc1ccccc1)C(=O)N[C@H](CC(C)C)C(=O)N[C@@H](C(=O)O)C(C)C [PMT, d(K)d(K)d(S)d(F)d(L)d(S)d(P)d(R)d(T)d(A)d(L)d(I)d(N)d(F)d(L)d(V)] | 100% | – | 100% | – | – | – | – | > 63% | does not undergo visible degradation; also recorded: did not undergo detectable degradation | consistently higher stability than the β32_33 peptide; also recorded: higher plasma stability than the β32_33 peptide at all time points; also recorded: slower degradation than the β32_33 peptide | > 50% | did undergo detectable degradation | – | – | – | –
3 | FRFKKKSFLSPRTALINFLV (SITE 1 d-Phenylalanine; SITE 2 d-Arginine; SITE 3 d-Phenylalanine; SITE 4 d-Lysine; SITE 5 d-Lysine; SITE 6 d-Lysine; SITE 7 d-Serine; SITE 8 d-Phenylalanine; SITE 9 d-Leucine; SITE 10 d-Serine; SITE 11 d-Proline; SITE 12 d-Arginine; SITE 13 d-Threonine; SITE 14 d-Alanine; SITE 15 d-Leucine; SITE 16 d-Isoleucine; SITE 17 d-Asparagine; SITE 18 d-Phenylalanine; SITE 19 d-Leucine; SITE 20 d-Valine) [M-PMT] | – | – | – | – | – | – | – | – | – | – | – | – | significantly improves | significantly improved | significantly improved | 10 fold
